Results published in patent publication US20140341853A1, “Bacteria-Mediated Therapy for Cancer” (priority 2013, published 2014).

Test system: yeast cells
Test: MTT assay using transformed E. coli, yeast cells and Daun02 as the prodrug
Format: cell-based
Experimental: In an exemplary embodiment, E. coli BL21 cells were transformed with the pSV-β-Galactosidase plasmid which contains a gene for beta-gal (available from Promega, Wisconsin, USA). Other types of bacteria and differently configured plasmids can also be used. Yeast can act as a eukaryotic cell model for cancer cells. Yeast cells contain mitochondria and a number of proteins homologous to those in humans. A MTT assay was performed using the transformed E. coli, yeast cells, and Daun02 as the prodrug. MTT is a tetrazolium dye which is converted into an insoluble purple-colored product (formazan) by live cells. The presence of formazan was measured spectrophotometrically. […] FIGS. 2A and 2B illustrate results of studies in which growing yeast cells were exposed to transformed E. coli BL21 cells and the prodrug Daun02. Bacteria and yeast were cultured over night and allowed to grow for 3 hours to be in optimal linear growth phase and samples were incubated together for approximately 5.5 or 10 hours in a 96 well microwell plate. The antibiotic kanamycin was added to all sample wells to reduce bacterial background signal. MTT dye was then added to wells and samples were incubated for three hours. A solubilization solution was then added, incubated for one hour, and the optical density was measured at 570 nm with a microplate reader. The absorbance at 570 nm of bacteria-only and bacteria and yeast-only samples were also measured. […] FIGS. 2A and 2B display results from different treatment times: 5.5 hours and 10 hours, respectively. […] Samples C and D contained beta-gal expressing bacteria, prodrug, and yeast cells. […] The length of time can be increased or decreased to increase the effectiveness of the treatment. […] A 2-Sample T-Test between the control sample and Sample C in the 10 hour experiment returned a p-value of 0.00296. […] Both p-values are smaller than the alpha level of 0.05 chosen before experimentation.

COc1cccc2c1C(=O)c1c(O)c3c(c(O)c1C2=O)C[C@@](O)(C(C)=O)C[C@@H]3O[C@H]1C[C@H](NC(=O)OCc2ccc(O[C@@H]3O[C@H](CO)[C@H](O)[C@H](O)[C@H]3O)c([N+](=O)[O-])c2)[C@H](O)[C@H](C)O1 [Daun02, N-[4″-(β-galactopyranosyl)-3″-nitrobenzyloxycarbonyl]daunomycin]
MTT absorbance at 570 nm (yeast cell survival) (Sample C: 2.5 μM Daun02 with beta-gal expressing E. coli BL21, 10 hours, p-value 0.00296 vs control): yeast cell death
MTT absorbance at 570 nm (yeast cell survival) (Sample D: 5 μM Daun02 with beta-gal expressing E. coli BL21, 5.5 hours, bacterial background subtracted): low absorption values
MTT absorbance at 570 nm (yeast cell survival) (Sample D: 5 μM Daun02 with beta-gal expressing E. coli BL21, 10 hours, p-value 0.00593 vs control): yeast cell death
MTT absorbance at 570 nm (yeast cell survival) (Samples A and B: yeast and prodrug, no bacteria (no added beta-gal enzyme), 5.5 and 10 hours): close to the control values
